Reference: patent US11564902B2, “Extended duration local anesthetic formulation” (Ventis Pharma, priority 2015, dated 2023)

Tests used:
[1] = cited from earlier work; for major nerve block duration: reportedly
[2] = cited from earlier work
[3] = contact with blood; cited from earlier work
[4] = Toxic dose of local anesthetics on intravascular absorption; settings: inferred from immediate hydrolysis on contact with blood
Text: Short duration local anesthetics are generally used in 1%-2% concentrations. Current applications for short duration local anesthetics are dictated by toxicity; these toxicities vary by drug. […] Intravascular injection or a toxic dosage carries the risk of potential complications such as cardiac arrhythmias or seizures.
Total dose is adjusted to the specific purpose for the local anesthetic administration.

[5] = powdered form, room temperature; cited from earlier work
[6] = with or without epinephrine; cited from earlier work

Compound	major nerve block duration [1]	motor blockade ([2]; 0.2% concentration)	neurotoxicity ([2]; 0.2% concentration)	toxic concentration ([2]; applied directly to nerve structures) [%]	metabolism in blood [3]	actual toxic dose [4]	stability [5]	toxic dose [6] [mg per kg]	analgesic duration ([1]; transversus abdominis plane (TAP) block, 30-35 ml per side, abdominal procedures) [h]
CCCN(CC)C(CC)C(=O)Nc1c(C)cccc1C (stereo not shown) [etidocaine]	three to twelve	–	–	–	–	–	–	–	–
CCCCNc1ccc(C(=O)OCCN(C)C)cc1 [tetracaine]	–	minimal motor blockade	not neurotoxic	1	immediately metabolized in contact with blood	higher than 5 mg/kg	stable at room temperature	–	–
CCCCN1CCCCC1C(=O)Nc1c(C)cccc1C (stereo not shown) [bupivacaine]	three to twelve	–	–	–	–	–	–	2.5	12 to 16
